For 18 compounds, IC50 results are on record in ChEMBL document CHEMBL4316586, “A comprehensive review of salinomycin derivatives as potent anticancer and anti-CSCs agents” (Eur J Med Chem, 2019).

pIC50: −log10 of the molar value.

One test concerns HT-29. Description: Antiproliferative activity against human HT-29 cells by MTT assay. It is filed as functional, cell-based. (In general: Tetrazolium assays rely on reduction of a dye to a coloured formazan, in cell work by metabolically active cells.)
A further test relates to HGC-27. As to the kind of experiment: Antiproliferative activity against human HGC27 cells by MTT assay. It is filed as functional, cell-based.
The subject of the next test is MDA-MB-231. Description: Antiproliferative activity against human MDA-MB-231 cells by MTT assay. It is filed as functional, cell-based.
In a further test the test system is JIMT-1. Description: Antiproliferative activity against human JIMT1 cells by MTT assay. It is filed as functional, cell-based.
In a further test the test system is MCF7. As to the kind of experiment: Antiproliferative activity against human MCF7 cells by MTT assay. It is filed as functional, cell-based.
The subject of a further test is U-87 MG. Description: Antiproliferative activity against human U87 cells by MTT assay. It is filed as functional, cell-based, U-87MG ATCC.
In another test the test system is HeLa. Description: Antiproliferative activity against human HeLa cells by MTT assay. It is filed as functional, cell-based.
For the next test, the system named is Caco-2. Description: Antiproliferative activity against human Caco2 cells by MTT assay. It is filed as functional, cell-based.

For the compound `CC[C@@H](C(=O)[C@@H](C)[C@@H](O)[C@H](C)[C@@H]1O[C@@H]([C@@H](CC)C(=O)O)CC[C@@H]1C)[C@H]1O[C@]2(C=C[C@H](OC(=O)CC(C)C)[C@]3(CC[C@@](C)([C@H]4CC[C@](O)(CC)[C@H](C)O4)O3)O2)[C@H](C)C[C@@H]1C`, the pIC50 with HT-29 was 6.05; in the test with HGC-27, 6.07; with MDA-MB-231, 5.56.
In the case of `CC[C@@H](C(=O)[C@@H](C)[C@@H](O)[C@H](C)[C@@H]1O[C@@H]([C@@H](CC)C(=O)O)CC[C@@H]1C)[C@H]1O[C@]2(C=C[C@@H](OC(=O)C(C)C)[C@]3(CC[C@@](C)([C@H]4CC[C@](O)(CC)[C@H](C)O4)O3)O2)[C@H](C)C[C@@H]1C`, the pIC50 was 6.82 in the test on JIMT-1 and 6.72 in the test on MCF7.
For `CC[C@@H](C(=O)[C@@H](C)[C@@H](O)[C@H](C)[C@@H]1O[C@@H]([C@@H](CC)C(=O)O)CC[C@@H]1C)[C@H]1O[C@]2(C=C[C@H](n3cc(-c4ccc(-c5ccccc5)cc4)nn3)[C@]3(CC[C@@](C)([C@H]4CC[C@](O)(CC)[C@H](C)O4)O3)O2)[C@H](C)C[C@@H]1C`, the pIC50 was 4.30 with U-87 MG, 6.48 with HeLa and 5.89 in the test with Caco-2.
`CC[C@@H](C(=O)[C@@H](C)[C@@H](O)[C@H](C)[C@@H]1O[C@@H]([C@@H](CC)C(=O)O)CC[C@@H]1C)[C@H]1O[C@]2(C=C[C@@H](OC(=O)Oc3ccccc3)[C@]3(CC[C@@](C)([C@H]4CC[C@](O)(CC)[C@H](C)O4)O3)O2)[C@H](C)C[C@@H]1C`: the pIC50 with JIMT-1 was 6.70; with MCF7, 6.62.
In the same order, the values of `CC[C@@H](C(=O)[C@@H](C)[C@@H](O)[C@H](C)[C@@H]1O[C@@H]([C@@H](CC)C(=O)O)CC[C@@H]1C)[C@H]1O[C@]2(C=C[C@@H](OC(=O)c3ccco3)[C@]3(CC[C@@](C)([C@H]4CC[C@](O)(CC)[C@H](C)O4)O3)O2)[C@H](C)C[C@@H]1C` are 6.80 and 6.89.
Consider `CC[C@@H](C(=O)[C@@H](C)[C@@H](O)[C@H](C)[C@@H]1O[C@@H]([C@@H](CC)C(=O)O)CC[C@@H]1C)[C@H]1O[C@]2(C=C[C@@H](OC(=O)NC(C)(C)C)[C@]3(CC[C@@](C)([C@H]4CC[C@](O)(CC)[C@H](C)O4)O3)O2)[C@H](C)C[C@@H]1C`, for which the pIC50 with JIMT-1 was 6.42; in the test with MCF7, 6.38.
Take `CC[C@@H](C(=O)[C@@H](C)[C@@H](O)[C@H](C)[C@@H]1O[C@@H]([C@@H](CC)C(=O)O)CC[C@@H]1C)[C@H]1O[C@]2(C=C[C@@H](OC(=O)c3ccccc3)[C@]3(CC[C@@](C)([C@H]4CC[C@](O)(CC)[C@H](C)O4)O3)O2)[C@H](C)C[C@@H]1C`: the pIC50 in the test on JIMT-1 was 6.44; with MCF7, 6.70.
Regarding `CC[C@@H](C(=O)[C@@H](C)[C@@H](O)[C@H](C)[C@@H]1O[C@@H]([C@@H](CC)C(=O)O)CC[C@@H]1C)[C@H]1O[C@]2(C=C[C@H](OC(=O)c3ccc(F)cc3)[C@]3(CC[C@@](C)([C@H]4CC[C@](O)(CC)[C@H](C)O4)O3)O2)[C@H](C)C[C@@H]1C`, the pIC50 with HT-29 is 6.80; with HGC-27, 6.55; with MDA-MB-231 it was 6.10.
On to `CC[C@@H](C(=O)[C@@H](C)[C@@H](O)[C@H](C)[C@@H]1O[C@@H]([C@@H](CC)C(=O)O)CC[C@@H]1C)[C@H]1O[C@]2(C=C[C@H](OC(C)=O)[C@]3(CC[C@@](C)([C@H]4CC[C@](O)(CC)[C@H](C)O4)O3)O2)[C@H](C)C[C@@H]1C`, for which the pIC50 was 6.10 with HT-29, 6.03 in the test with HGC-27 and 5.71 with MDA-MB-231.
`CC[C@@H](C(=O)[C@@H](C)[C@@H](O)[C@H](C)[C@@H]1O[C@@H]([C@@H](CC)C(=O)O)CC[C@@H]1C)[C@H]1O[C@]2(C=C[C@@H](OC(C)=O)[C@]3(CC[C@@](C)([C@H]4CC[C@](O)(CC)[C@H](C)O4)O3)O2)[C@H](C)C[C@@H]1C`: the pIC50 in the test with JIMT-1 and with MCF7 was 6.96 in each case.
In the case of `CCOC(=O)O[C@@H]1C=C[C@]2(O[C@H]([C@@H](CC)C(=O)[C@@H](C)[C@@H](O)[C@H](C)[C@@H]3O[C@@H]([C@@H](CC)C(=O)O)CC[C@@H]3C)[C@@H](C)C[C@H]2C)O[C@@]12CC[C@@](C)([C@H]1CC[C@](O)(CC)[C@H](C)O1)O2`, the pIC50 in the test with JIMT-1 was 7.05; in the test with MCF7, 6.89.
`C=CC(=O)O[C@@H]1C=C[C@]2(O[C@H]([C@@H](CC)C(=O)[C@@H](C)[C@@H](O)[C@H](C)[C@@H]3O[C@@H]([C@@H](CC)C(=O)O)CC[C@@H]3C)[C@@H](C)C[C@H]2C)O[C@@]12CC[C@@](C)([C@H]1CC[C@](O)(CC)[C@H](C)O1)O2`: the figures for the pIC50 in the test on JIMT-1 and with MCF7 were 6.41 and 6.21, respectively.
As for `CC[C@@H](C(=O)[C@@H](C)[C@@H](O)[C@H](C)[C@@H]1O[C@@H]([C@@H](CC)C(=O)O)CC[C@@H]1C)[C@H]1O[C@]2(C=C[C@H](OC(=O)c3ccccc3)[C@]3(CC[C@@](C)([C@H]4CC[C@](O)(CC)[C@H](C)O4)O3)O2)[C@H](C)C[C@@H]1C`, the pIC50 with HT-29 was 6.74; with HGC-27 it was 6.62; in the test with MDA-MB-231 it was 6.10.
As to `CC[C@@H](C(=O)[C@@H](C)[C@@H](O)[C@H](C)[C@@H]1O[C@@H]([C@@H](CC)C(=O)O)CC[C@@H]1C)[C@H]1O[C@]2(C=C[C@@H](OC(=O)c3cnco3)[C@]3(CC[C@@](C)([C@H]4CC[C@](O)(CC)[C@H](C)O4)O3)O2)[C@H](C)C[C@@H]1C`, the values for the pIC50 with JIMT-1 and with MCF7 were 6.62 and 6.64, respectively.
In the case of `CC[C@@H](C(=O)[C@@H](C)[C@@H](O)[C@H](C)[C@@H]1O[C@@H]([C@@H](CC)C(=O)O)CC[C@@H]1C)[C@H]1O[C@]2(C=C[C@@H](OC(=O)C3CCCCC3)[C@]3(CC[C@@](C)([C@H]4CC[C@](O)(CC)[C@H](C)O4)O3)O2)[C@H](C)C[C@@H]1C`, the pIC50 in the test with JIMT-1 is 6.52; with MCF7 it was 6.62.
`CCC(=O)O[C@H]1C=C[C@]2(O[C@H]([C@@H](CC)C(=O)[C@@H](C)[C@@H](O)[C@H](C)[C@@H]3O[C@@H]([C@@H](CC)C(=O)O)CC[C@@H]3C)[C@@H](C)C[C@H]2C)O[C@@]12CC[C@@](C)([C@H]1CC[C@](O)(CC)[C@H](C)O1)O2`: the pIC50 is 6.08 in the test on HT-29, 6.05 with HGC-27 and 5.72 in the test on MDA-MB-231.
Take `CCNC(=O)O[C@@H]1C=C[C@]2(O[C@H]([C@@H](CC)C(=O)[C@@H](C)[C@@H](O)[C@H](C)[C@@H]3O[C@@H]([C@@H](CC)C(=O)O)CC[C@@H]3C)[C@@H](C)C[C@H]2C)O[C@@]12CC[C@@](C)([C@H]1CC[C@](O)(CC)[C@H](C)O1)O2`: the pIC50 was 6.59 with JIMT-1 and 6.80 in the test on MCF7.
As to `CC[C@@H](C(=O)[C@@H](C)[C@@H](O)[C@H](C)[C@@H]1O[C@@H]([C@@H](CC)C(=O)O)CC[C@@H]1C)[C@H]1O[C@]2(C=C[C@@H](OC(=O)C(C)(C)C)[C@]3(CC[C@@](C)([C@H]4CC[C@](O)(CC)[C@H](C)O4)O3)O2)[C@H](C)C[C@@H]1C`, the pIC50 in the test on JIMT-1 was 6.64; with MCF7 it was 6.77.

As usually defined, the pIC50 is the IC50 on a negative log10 scale, so that one unit is a factor of ten.
